Source: patent US20250325534A1, “MICROBIOCIDAL TETRAHYDROISOQUINOLINE DERIVATIVES” (SYNGENTA CROP PROTECTION AG, priority 2021, published 2025)

Columns and labels:
[1] = test system: Pyrenophora teres; assay: Pyrenophora teres / barley / leaf disc preventative (net blotch); type: in vivo; settings: foliar, inoculated 2 days after application
Protocol: Example B16: Pyrenophora teres/Barley/Leaf Disc Preventative (Net Blotch) Barley leaf segments cv. Hasso are placed on agar in a multiwell plate (24-well format) and sprayed with the formulated test compound diluted in water. The leaf segments are inoculated with a spore suspension of the fungus 2 days after application. The inoculated leaf segments are incubated at 20° C. and 65% relative humidity under a light regime of 12 h light/12 h darkness in a climate cabinet and the activity of a compound is assessed as disease control compared to untreated when an appropriate level of disease damage appears in untreated check leaf segments (5-7 days after application).

[2] = test system: Mycosphaerella graminicola; assay: Mycosphaerella graminicola (Septoria tritici) / liquid culture (Septoria blotch); type: cell-based; settings: Zymoseptoria tritici, 96 h, photometrically 4-5 days after application, read-out: control of Mycosphaerella graminicola
Summary of the method: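 Growth inhibition measured by photometry 4-5 days post application, at 24° C incubation. Test compound supplied as DMSO solution; fungal conidia from cryostorage suspended directly in potato dextrose broth as inoculum.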

[3] = test system: Alternaria solani; assay: Alternaria solani / tomato / leaf disc (early blight); type: in vivo; settings: foliar, inoculated 2 days after application, vs untreated control
[4] = test system: Mycosphaerella arachidis; assay: Mycosphaerella arachidis (Cercospora arachidicola) / liquid culture (early leaf spot); type: cell-based; settings: 96 h, photometrically 4-5 days after application, read-out: control of Mycosphaerella arachidis
Summary of the method: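 Photometric growth inhibition, read 4-5 days post-application at 24 °C, of Cercospora arachidicola spores suspended in potato dextrose broth and exposed to test compound delivered from DMSO solution.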

[5] = test system: Glomerella lagenarium; assay: Glomerella lagenarium (Colletotrichum lagenarium) / liquid culture (anthracnose); type: cell-based; settings: Colletotrichum orbiculare, 72 h, photometrically 3-4 days after application, read-out: control of Glomerella lagenarium
Summary of the method: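 Conidia in potato dextrose broth added to test compound delivered as DMSO solution in microtiter plates; incubation at 24° C. Growth inhibition read photometrically 3-4 days after application.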

[6] = test system: Monographella nivalis; assay: Monographella nivalis (Microdochium nivale) / liquid culture (foot rot cereals); type: cell-based; settings: 96 h, photometrically 4-5 days after application, read-out: control of Monographella nivalis
Summary of the method: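 Test compound, applied as a DMSO solution, was challenged with fungal spores suspended in potato dextrose broth; after 4-5 days at 24° C, photometric readout gave inhibition of growth.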

[7] = test system: Phaeosphaeria nodorum; assay: Phaeosphaeria nodorum (Septoria nodorum) / wheat / leaf disc preventative (glume blotch); type: in vivo; settings: Parastagonospora nodorum, foliar, inoculated 2 days after application
Summary of the method: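 Wheat leaf discs (cv. Kanzler) on agar were sprayed with formulated compound diluted in water, then inoculated with spores 2 days later. Incubation was at 20 °C and 75% relative humidity under 12 h light/12 h dark. Percent disease control versus untreated was scored 5–7 days after application.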

[8] = test system: Botryotinia fuckeliana; assay: Botryotinia fuckeliana (Botrytis cinerea) / liquid culture (gray mould); type: cell-based; settings: 72 h, growth inhibition photometrically 3-4 days after application, read-out: control of Botryotinia fuckeliana
Summary of the method: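 Botrytis cinerea conidia in Vogels nutrient broth added to test compound delivered in DMSO. Incubated at 24 °C; growth inhibition measured photometrically 3–4 days after application.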

[9] = test system: fungi; assay: Fungicidal activity of separated stereoisomers compared (test not specified); settings: comparison of SFC-separated isomers; test and fungus not given
[10] = test system: Sclerotinia sclerotiorum; assay: Sclerotinia sclerotiorum / liquid culture (cottony rot); type: cell-based; settings: 72 h, photometrically 3-4 days after application, read-out: control of Sclerotinia sclerotiorum
Protocol: Example B18: Sclerotinia sclerotiorum/Liquid Culture (Cottony Rot) Mycelia fragments of a newly grown liquid culture of the fungus are directly mixed into a nutrient broth (potato dextrose broth). After placing a DMSO solution of test compound into a microtiter plate (96-well format) the nutrient broth containing the fungal material is added. The test plates are incubated at 24° C. and the inhibition of growth is determined photometrically 3-4 days after application.

[11] = test system: Blumeria graminis f. sp. tritici; assay: Blumeria graminis f. sp. tritici / wheat / leaf disc preventative (powdery mildew); type: in vivo; settings: foliar, inoculated 1 day after application
Protocol: Example B7: Blumeria graminis f. Sp. Tritici (Erysiphe graminis f. Sp. Tritici)/Wheat/Leaf Disc Preventative (Powdery Mildew on Wheat) Wheat leaf segments cv. Kanzler are placed on agar in a multiwell plate (24-well format) and sprayed with the formulated test compound diluted in water. The leaf disks are inoculated by shaking powdery mildew infected plants above the test plates 1 day after application. The inoculated leaf disks are incubated at 20° C. and 60% relative humidity under a light regime of 24 h darkness followed by 12 h light/12 h darkness in a climate chamber and the activity of a compound is assessed as percent disease control compared to untreated when an appropriate level of disease damage appears on untreated check leaf segments (6-8 days after application).

[12] = test system: Puccinia recondita f. sp. tritici; assay: Puccinia recondita f. sp. tritici / wheat / leaf disc preventative (brown rust); type: in vivo; settings: foliar, inoculated 1 day after application
Protocol: Example B14: Puccinia recondita f. Sp. Tritici/Wheat/Leaf Disc Preventative (Brown Rust) Wheat leaf segments cv. Kanzler are placed on agar in multiwell plates (24-well format) and sprayed with the formulated test compound diluted in water. The leaf disks are inoculated with a spore suspension of the fungus 1 day after application. The inoculated leaf segments are incubated at 19° C. and 75% relative humidity under a light regime of 12 h light/12 h darkness in a climate cabinet and the activity of a compound is assessed as percent disease control compared to untreated when an appropriate level of disease damage appears in untreated check leaf segments (7-9 days after application).

[13] = test system: Fusarium culmorum; assay: microbe, parasite or virus in culture; type: cell-based; settings: 72 h, read-out: control of Fusarium culmorum

SMILES	pest or weed control at 200 ppm [1]	inhibition of growth at 20 ppm [2]	pest or weed control at 200 ppm [3]	inhibition of growth at 20 ppm [4]	inhibition of growth at 20 ppm [5]	inhibition of growth at 20 ppm [6]	pest or weed control at 200 ppm [7]	inhibition of growth at 20 ppm [8]	fungicidal activity relative to its stereoisomer [9]	inhibition of growth at 20 ppm [10]	pest or weed control at 200 ppm [11]	pest or weed control at 200 ppm [12]	inhibition of growth at 20 ppm [13]
Cn1cc([C@@]2(C)CN(C(=O)c3cc(-c4ccc(F)cc4F)on3)Cc3ccccc32)cn1 (single isomer, unassigned) [Compound P-48]	≥ 80%	≥ 80%	≥ 80%	≥ 80%	≥ 80%	≥ 80%	≥ 80%	≥ 80%	more fungicidally active than the (R) isomer	≥ 80%			
Cc1c(C2CN(C(=O)c3cc(-c4ccc(F)cc4)no3)Cc3ccccc32)cnn1C (centres unmarked) [Compound P-109, [4-(1,5-dimethylpyrazol-4-yl)-3,4-dihydro-1H-isoquinolin-2-yl]-[3-(4-fluorophenyl)isoxazol-5-yl]methanone]	≥ 80%	≥ 80%	≥ 80%	≥ 80%	≥ 80%	≥ 80%	≥ 80%	≥ 80%		≥ 80%	≥ 80%	≥ 80%	
Cc1c(C2CN(C(=O)c3cc(-c4ccc(F)cc4F)on3)Cc3ccccc32)cnn1C (single isomer, unassigned) [Compound P-223, [5-(2,4-difluorophenyl)isoxazol-3-yl]-[4-(1,5-dimethylpyrazol-4-yl)-3,4-dihydro-1H-isoquinolin-2-yl]methanone]		≥ 80%		≥ 80%	≥ 80%	≥ 80%		≥ 80%		≥ 80%			≥ 80%
C[C@H]1c2ccccc2[C@@](C)(c2cnn(C)c2)CN1C(=O)c1cc(-c2ccc(F)cc2F)on1 (single isomer, unassigned) [Compound P-6]	≥ 80%	≥ 80%	≥ 80%	≥ 80%	≥ 80%	≥ 80%	≥ 80%	≥ 80%	more fungicidally active than the compound of peak 3				
C[C@@H]1c2ccccc2[C@@](C)(c2cnn(C)c2)CN1C(=O)c1cc(-c2ccc(F)cc2F)on1 (single isomer, unassigned) [Compound P-9]		≥ 80%				≥ 80%			more fungicidally active than the compound of peak 2				
Cn1ncc(C2CN(C(=O)c3nnc(-c4ccc(F)cc4F)s3)Cc3ccccc32)c1Cl (centres unmarked) [Compound P-212, [4-(5-chloro-1-methyl-pyrazol-4-yl)-3,4-dihydro-1H-isoquinolin-2-yl]-[5-(2,4-difluorophenyl)-1,3,4-thiadiazol-2-yl]methanone]		≥ 80%		≥ 80%	≥ 80%	≥ 80%		≥ 80%		≥ 80%			≥ 80%
Cc1c(C2CN(C(=O)c3cc(-c4ccc(F)cc4F)no3)Cc3ccccc32)cnn1C (centres unmarked) [Compound P-108, [3-(2,4-difluorophenyl)isoxazol-5-yl]-[4-(1,5-dimethylpyrazol-4-yl)-3,4-dihydro-1H-isoquinolin-2-yl]methanone]	≥ 80%	≥ 80%	≥ 80%	≥ 80%	≥ 80%	≥ 80%	≥ 80%	≥ 80%			≥ 80%		≥ 80%
Cc1c(C2CN(C(=O)c3nnc(-c4ccc(F)cc4F)s3)Cc3ccccc32)cnn1C (centres unmarked) [Compound P-65, [5-(2,4-difluorophenyl)-1,3,4-thiadiazol-2-yl]-[4-(1,5-dimethylpyrazol-4-yl)-3,4-dihydro-1H-isoquinolin-2-yl]methanone]	≥ 80%	≥ 80%	≥ 80%	≥ 80%	≥ 80%	≥ 80%	≥ 80%	≥ 80%		≥ 80%	≥ 80%		≥ 80%
Cc1c(C2CN(C(=O)c3cc(-c4ccccc4F)on3)Cc3ccccc32)cnn1C (centres unmarked) [Compound P-119, [4-(1,5-dimethylpyrazol-4-yl)-3,4-dihydro-1H-isoquinolin-2-yl]-[5-(2-fluorophenyl)isoxazol-3-yl]methanone]	≥ 80%	≥ 80%	≥ 80%	≥ 80%	≥ 80%	≥ 80%	≥ 80%	≥ 80%					≥ 80%
Cc1c(C2CN(C(=O)c3nnc(-c4ccccc4F)s3)Cc3ccccc32)cnn1C (centres unmarked) [Compound P-64, [4-(1,5-dimethylpyrazol-4-yl)-3,4-dihydro-1H-isoquinolin-2-yl]-[5-(2-fluorophenyl)-1,3,4-thiadiazol-2-yl]methanone]	≥ 80%	≥ 80%	≥ 80%	≥ 80%	≥ 80%	≥ 80%	≥ 80%	≥ 80%					≥ 80%
